Experimental data reported in PMC8298264, “Function of cofactor Akirin2 in the regulation of gene expression in model human neutrophil-like HL60 cells” (Bioscience Reports, 2021).

Experiments:
[1] = system: recombinant human Akirin2 (recAkirin2); experiment: EpiTriton Histone Peptide Array, recAkirin2 binding (fluorescence); details: recAkirin2 vs HSP70, Student's t test and One-Way ANOVA (P<0.05), n=2 technical replicates
recAkirin2 [2] = target: T1, recAkirin2 (Homo sapiens, UniProt Q53H80); experiment: In vitro protein pull-down and Western blot of recAkirin2 with biotinylated histone H3.1 peptides; format: binding; design: DDK (FLAG) (C); purchased GenScript (E. coli) or OriGene (HEK293T); 'insect cells and E. coli'; details: streptavidin beads, 1 µg protein, 2 h at RT, Akirin2-specific antibody ab130473
[3] = system: ELANE and LHX2 mRNA in human HL60 cells; experiment: Akirin2 'distraction' by histone peptide transfection, ELANE and LHX2 mRNA by qRT-PCR; format: cell-based; details: 1.5 μg peptide per well, HL60 1 × 10^5 cells/well, harvested after 72 h; normalized to β-actin; unpaired t test P<0.05, n=3 biological replicates
recAkirin2 [4] = target: T1, recAkirin2; experiment: Akirin2–IP interactions in HL60 lysate, c-Myc pull-down and dot blot; format: binding; details: recAkirin2 on c-Myc beads with HL60 lysate, dot blot; compared with SNRNP70, Student's t test P<0.05, n=2 biological replicates
Procedure: Some of the previously identified Akirin2 IPs were selected for analysis of Akirin2–IP interactions in human HL60 cells. The HL60 cells were pelleted, washed with cold PBS and proteins were extracted by adding 1 ml of cold TBS supplemented with protease inhibitor cocktail (Complete Mini EDTA-free, Roche, Switzerland). Cells were disrupted passing through a 20 G needle and sonicated (3 min/cycle, 3 cycles, 25°C) until lysate was clear. Lysate was centrifuged at 12000×g for 30 min at 4°C, after which the supernatant was collected, and protein concentration was determined using the BCA Protein Assay using BSA as the standard. The COOH-(Myc-([…])-DDK)-tagged recAkirin2 produced in human cells was used for interactions with the identified Akirin2–IPs, mediator of RNA polymerase II transcription subunit 16 (THRAP5; Q9Y2X0), phosphatidylinositol transfer protein-α isoform (PITPNA; Q00169), protein Wnt-2 (WNT2; P09544), and splicing factor 3a subunit 1 (SF3A1; Q15459). The U1 small nuclear ribonucleoprotein 70 kDa (SNRNP70; P08621) was used as protein negative control. […] Area and percent analysis of each chemiluminescence dot signal were obtained and analyzed using Fiji program (ImageJ 1.52n; https://downloads.tomsguide.com/ImageJ,0301-31184.html). […]

tick SUB = details: cited from earlier work
Source text: Epigenetic modifications of histone H3.1 at Lys amino acids has been involved in the regulation of transcription in different BPs and pathogen infection [[48–51]].

T1 sequence (Q53H80 whole entry): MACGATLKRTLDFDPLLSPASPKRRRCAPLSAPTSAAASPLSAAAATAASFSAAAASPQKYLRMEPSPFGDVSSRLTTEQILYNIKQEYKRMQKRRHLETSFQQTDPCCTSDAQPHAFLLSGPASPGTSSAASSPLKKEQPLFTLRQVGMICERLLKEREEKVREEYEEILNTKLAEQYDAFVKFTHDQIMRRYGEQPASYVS

Substance: ARTKQTARKSTGGK(Me2)APRKQL-Peg-Biot [Peptide H3met, histone H3.1 amino acids 1–20 dimethylated at Lys^14, biotinylated]
- Akirin2–histone interaction by histone peptide array [1]: Akirin2–histone H3.1 interacting peptides
- recAkirin2–histone H3.1 peptide interaction by pull-down and Western blot (recAkirin2 [2]): corroborated by in vitro protein pull-down and Western blot analysis

Substance: H2A: unrelated histone H2A (amino acids 1–17) peptide (Epicypher, Inc.) (SGRGKQGGKARAKAKTR; UniProt P0C0S8 2-18, looked up, fragment) [Peptide H2A]
- Effect of transfection on gene expression (ELANE and LHX2 mRNA) [3]: not the unrelated H2A or HEPES buffer affected gene expression

Substance: SNRNP70: U1 small nuclear ribonucleoprotein 70 kDa (P08621), protein negative control
- Akirin2–IP interaction (recAkirin2 [4]): low interaction with Akirin2

Substance: histone H4 but: histone H4, amino acids 1–23 butyrylated at Lys 5, 8 and 12
- physical interaction with tick SUB (tick SUB): physical interaction
